Laboratory results reported in patent US20100190846A1, “MICROBICIDAL AGENT AND MICROBICIDAL COMPOSITION” (priority 2006, published 2010).
≈ marks a conversion by molar mass, not a printed value.

What was measured:
Experiment in all cases: Agar dilution method microbicidal test
Format in all cases: cell-based
Yersinia enterocolitica = system: Yersinia enterocolitica; for Growth on agar plate: key: +: grew; −: did not grow
Method: (§1) As microbicidal test method for trans-p-coumaric acid, 3-hydroxypyridine, p-hydroxybenzaldehyde and vanillin, the agar dilution method was employed.
(§2) In agar dilution method, a solution in which a sample is dissolved is serially diluted several times, and each of the diluted sample solutions is mixed with agar medium to prepare plate agars having various sample concentration. Then bacteria is inoculated onto the plate agars. In cases where the sample has a microbicidal activity, the growth of the bacteria on the plates can be inhibited. The lowest concentration which can inhibit the growth of the bacteria is referred to as Minimum Inhibitory Concentration (MIC), thereby judging the degree of a microbicidal activity of the sample.
(§3) First, 400 mg of sample was dissolved in 1 mL of DMSO to prepare 400 mg/mL sample solution. Then 0.5 mL of this 400 mg/mL sample solution was diluted 2-fold to prepare 200 mg/mL sample solution. In the same manner, sample solutions of 100 mg/mL, 50.0 mg/mL, and 25.0 mg/mL were prepared. In addition, 300 mg/mL sample solution was prepared. Thereafter, 0.2 mL of these sample solutions each was mixed with 19.8 mL of BHI (Brain Heart Infusion Agar, Becton Dickinson, MD) medium, thereby preparing agar plates having the sample concentration of 4.0 mg/mL, 3.0 mg/mL, 2.0 mg/mL, 1.0 mg/mL, 0.5 mg/mL, and 0.25 mg/mL in dishes. […] Sterilized water was used for dissolving catechin, because catechin was insoluble in DMSO.
(§4) As test bacteria, 13 kinds of bacteria, i.e., Streptococcus pneumoniae, Streptococcus pyogenes, Enterococcus faecalis, Staphylococcus aureus, Escherichia coli, Salmonella sp., Yersinia enterocolitica, Vibrio parahaemolyticus, Pseudomonas aeruginosa, Bacillus cereus, Bacillus subtilis MB-32, Bacillus subtilis ATCC6633, and Candida sp., were used. These bacteria each was mixed with 2 mL of sterilized MHB^R liquid medium (Mueller Hinton Broth^R, Becton Dickinson, MD) to prepare bacterial suspension having turbidity 1 (bacterial concentration 10^8/mL). Previously, small test tubes were set into each cell of a grating and sterilized, and 1 mL of 13 bacterial suspensions were added into the small test tubes set in the grating, respectively. By using a microplanter (SAKUMA, model: MIT-P), 10 μL aliquot was collected from each test tube set in the grating and transferred to other test tube, and the transferred bacterial suspensions were diluted 100-fold (bacterial concentration 10^6/mL).
(§5) By using the microplanter, 10 μL (bacterial number […]) of this bacterial suspension was inoculated onto the plates containing the sample solution of various concentrations. The plates were incubated for 18 hours in an incubator at 37° C., and then a microbicidal activity of each compound was assessed.

Salmonella sp. = system: Salmonella sp. Note: key: +: grew; −: did not grow.
Method: as §1, §2, §3, §4, §5

Pseudomonas aeruginosa = system: Pseudomonas aeruginosa; note: key: +: grew; −: did not grow
Method: as §1, §2, §3, §4, §5

Streptococcus pyogenes = system: Streptococcus pyogenes; for Growth on agar plate: key: +: grew; −: did not grow
Method: as §1, §2, §3, §4, §5

Escherichia coli = system: Escherichia coli; note: key: +: grew; −: did not grow
Method: as §1, §2, §3, §4, §5

Streptococcus pneumoniae = system: Streptococcus pneumoniae; for Growth on agar plate: key: +: grew; −: did not grow
Method: as §1, §2, §3, §4, §5

Enterococcus faecalis = system: Enterococcus faecalis; note: key: +: grew; −: did not grow
Method: as §1, §2, §3, §4, §5

Vibrio parahaemolyticus = system: Vibrio parahaemolyticus; for Growth on agar plate: key: +: grew; −: did not grow
Method: as §1, §2, §3, §4, §5

Bacillus cereus = system: Bacillus cereus; for Growth on agar plate: key: +: grew; −: did not grow
Method: as §1, §2, §3, §4, §5

Bacillus subtilis MB-32 = system: Bacillus subtilis MB-32; note: key: +: grew; −: did not grow
Method: as §1, §2, §3, §4, §5

Candida sp. = system: Candida sp. For Growth on agar plate: key: +: grew; −: did not grow.
Method: as §1, §2, §3, §4, §5

Staphylococcus aureus = system: Staphylococcus aureus; for Growth on agar plate: key: +: grew; −: did not grow
Method: as §1, §2, §3, §4, §5

[1] = system: Bacillus subtilis ATCC6633; for Growth on agar plate: key: +: grew; −: did not grow
Method: as §1, §2, §3, §4, §5

[2] = BHI agar, 37° C., 18 hours, read-out: MIC

O=C(O)/C=C/c1ccc(O)cc1 [trans-p-Coumaric Acid, trans-p-coumaric acid]
activity (in words) (Yersinia enterocolitica): had an activity | Growth on agar plate (Yersinia enterocolitica; 0.25 mg/mL): + | Growth on agar plate (Yersinia enterocolitica; 0.5 mg/mL): + | Growth on agar plate (Yersinia enterocolitica; 1.0 mg/mL): + | Growth on agar plate (Yersinia enterocolitica; 2.0 mg/mL): + | Growth on agar plate (Yersinia enterocolitica; 3.0 mg/mL): + | Growth on agar plate (Yersinia enterocolitica; 4.0 mg/mL): − | MIC (Yersinia enterocolitica; [2]): 4000 µg/mL (≈ 24.4 mM) | Growth on agar plate (Salmonella sp.; 0.25 mg/mL): + | Growth on agar plate (Salmonella sp.; 0.5 mg/mL): + | Growth on agar plate (Salmonella sp.; 1.0 mg/mL): + | Growth on agar plate (Salmonella sp.; 2.0 mg/mL): + | Growth on agar plate (Salmonella sp.; 3.0 mg/mL): + | Growth on agar plate (Salmonella sp.; 4.0 mg/mL): + | Growth on agar plate (Pseudomonas aeruginosa; 0.25 mg/mL): + | Growth on agar plate (Pseudomonas aeruginosa; 0.5 mg/mL): + | Growth on agar plate (Pseudomonas aeruginosa; 1.0 mg/mL): + | Growth on agar plate (Pseudomonas aeruginosa; 2.0 mg/mL): + | Growth on agar plate (Pseudomonas aeruginosa; 3.0 mg/mL): + | Growth on agar plate (Pseudomonas aeruginosa; 4.0 mg/mL): + | activity (in words) (Streptococcus pyogenes): had an activity | Growth on agar plate (Streptococcus pyogenes; 0.25 mg/mL): + | Growth on agar plate (Streptococcus pyogenes; 0.5 mg/mL): + | Growth on agar plate (Streptococcus pyogenes; 1.0 mg/mL): + | Growth on agar plate (Streptococcus pyogenes; 2.0 mg/mL): + | Growth on agar plate (Streptococcus pyogenes; 3.0 mg/mL): − | Growth on agar plate (Streptococcus pyogenes; 4.0 mg/mL): − | MIC (Streptococcus pyogenes; [2]): 3000 µg/mL (≈ 18.3 mM) | Growth on agar plate (Escherichia coli; 0.25 mg/mL): + | Growth on agar plate (Escherichia coli; 0.5 mg/mL): + | Growth on agar plate (Escherichia coli; 1.0 mg/mL): + | Growth on agar plate (Escherichia coli; 2.0 mg/mL): + | Growth on agar plate (Escherichia coli; 3.0 mg/mL): + | Growth on agar plate (Escherichia coli; 4.0 mg/mL): + | activity (in words) (Streptococcus pneumoniae): had an activity | Growth on agar plate (Streptococcus pneumoniae; 0.25 mg/mL): + | Growth on agar plate (Streptococcus pneumoniae; 0.5 mg/mL): + | Growth on agar plate (Streptococcus pneumoniae; 1.0 mg/mL): + | Growth on agar plate (Streptococcus pneumoniae; 2.0 mg/mL): − | Growth on agar plate (Streptococcus pneumoniae; 3.0 mg/mL): − | Growth on agar plate (Streptococcus pneumoniae; 4.0 mg/mL): − | MIC (Streptococcus pneumoniae; [2]): 2000 µg/mL (≈ 12.2 mM) | Growth on agar plate (Enterococcus faecalis; 0.25 mg/mL): + | Growth on agar plate (Enterococcus faecalis; 0.5 mg/mL): + | Growth on agar plate (Enterococcus faecalis; 1.0 mg/mL): + | Growth on agar plate (Enterococcus faecalis; 2.0 mg/mL): + | Growth on agar plate (Enterococcus faecalis; 3.0 mg/mL): + | Growth on agar plate (Enterococcus faecalis; 4.0 mg/mL): + | activity (in words) (Vibrio parahaemolyticus): had an activity | Growth on agar plate (Vibrio parahaemolyticus; 0.25 mg/mL): + | Growth on agar plate (Vibrio parahaemolyticus; 0.5 mg/mL): + | Growth on agar plate (Vibrio parahaemolyticus; 1.0 mg/mL): + | Growth on agar plate (Vibrio parahaemolyticus; 2.0 mg/mL): + | Growth on agar plate (Vibrio parahaemolyticus; 3.0 mg/mL): − | Growth on agar plate (Vibrio parahaemolyticus; 4.0 mg/mL): − | MIC (Vibrio parahaemolyticus; [2]): 3000 µg/mL (≈ 18.3 mM) | activity (in words) (Bacillus cereus): had an activity | Growth on agar plate (Bacillus cereus; 0.25 mg/mL): + | Growth on agar plate (Bacillus cereus; 0.5 mg/mL): + | Growth on agar plate (Bacillus cereus; 1.0 mg/mL): + | Growth on agar plate (Bacillus cereus; 2.0 mg/mL): + | Growth on agar plate (Bacillus cereus; 3.0 mg/mL): − | Growth on agar plate (Bacillus cereus; 4.0 mg/mL): − | MIC (Bacillus cereus; [2]): 3000 µg/mL (≈ 18.3 mM) | Growth on agar plate (Bacillus subtilis MB-32; 0.25 mg/mL): + | Growth on agar plate (Bacillus subtilis MB-32; 0.5 mg/mL): + | Growth on agar plate (Bacillus subtilis MB-32; 1.0 mg/mL): + | Growth on agar plate (Bacillus subtilis MB-32; 2.0 mg/mL): + | Growth on agar plate (Bacillus subtilis MB-32; 3.0 mg/mL): + | Growth on agar plate (Bacillus subtilis MB-32; 4.0 mg/mL): + | activity (in words) (Candida sp.): had an activity | Growth on agar plate (Candida sp.; 0.25 mg/mL): + | Growth on agar plate (Candida sp.; 0.5 mg/mL): + | Growth on agar plate (Candida sp.; 1.0 mg/mL): + | Growth on agar plate (Candida sp.; 2.0 mg/mL): + | Growth on agar plate (Candida sp.; 3.0 mg/mL): − | Growth on agar plate (Candida sp.; 4.0 mg/mL): − | MIC (Candida sp.; [2]): 3000 µg/mL (≈ 18.3 mM) | activity (in words) (Staphylococcus aureus): had an activity | Growth on agar plate (Staphylococcus aureus; 0.25 mg/mL): + | Growth on agar plate (Staphylococcus aureus; 0.5 mg/mL): + | Growth on agar plate (Staphylococcus aureus; 1.0 mg/mL): + | Growth on agar plate (Staphylococcus aureus; 2.0 mg/mL): + | Growth on agar plate (Staphylococcus aureus; 3.0 mg/mL): + | Growth on agar plate (Staphylococcus aureus; 4.0 mg/mL): − | MIC (Staphylococcus aureus; [2]): 4000 µg/mL (≈ 24.4 mM) | MIC ([1]; ATCC6633, Bacillus subtilis ATCC 6633, BHI agar, 37° C., 18 hours, read-out: MIC): 3000 µg/mL (≈ 18.3 mM) | activity (in words) ([1]; Bacillus subtilis ATCC6633): had an activity | Growth on agar plate ([1]; Bacillus subtilis ATCC 6633, 0.25 mg/mL): + | Growth on agar plate ([1]; Bacillus subtilis ATCC 6633, 0.5 mg/mL): + | Growth on agar plate ([1]; Bacillus subtilis ATCC 6633, 1.0 mg/mL): + | Growth on agar plate ([1]; Bacillus subtilis ATCC 6633, 2.0 mg/mL): + | Growth on agar plate ([1]; Bacillus subtilis ATCC 6633, 3.0 mg/mL): − | Growth on agar plate ([1]; Bacillus subtilis ATCC 6633, 4.0 mg/mL): −
